molecular target: human SPR (Homo sapiens (Human), UniProt P35270); assay: Evaluation Example 2: Measurement of human SPR inhibitory activity (seven concentrations, sepiapterin absorbance at 420 nm); format: biochemical; details: Evaluation Example 2, seven concentrations 0.14 nM to 100 nM, 240 minutes at room temperature, read-out: IC50
Method in brief: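 Reactions ran 240 min at room temperature in 100 mM Tris-HCl pH 7.5 with 0.01% BSA. They contained tag-cleaved, E. coli-expressed full-length human SPR (diluted to 150 ng/mL), seven compound concentrations from 0.14 to 100 nM, and sepiapterin/NADPH added as a 120 μM/160 μM solution. Inhibition was calculated from sepiapterin absorbance at 420 nm.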

Chain of human SPR (P35270 whole entry): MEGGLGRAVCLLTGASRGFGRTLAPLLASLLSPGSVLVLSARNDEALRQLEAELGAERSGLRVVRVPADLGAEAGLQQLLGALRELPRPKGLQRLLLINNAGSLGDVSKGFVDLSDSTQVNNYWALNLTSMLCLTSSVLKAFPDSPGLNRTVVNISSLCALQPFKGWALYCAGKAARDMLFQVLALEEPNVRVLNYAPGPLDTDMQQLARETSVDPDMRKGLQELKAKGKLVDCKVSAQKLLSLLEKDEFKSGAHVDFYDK

| SMILES | IC50 [nM] |
| --- | --- |
| Cc1nn2c(O)c(C(=O)NC3CC3)c(=O)n(CC(C)C)c2c1/C=C/C(=O)N1CCOc2ncccc21 [Synthesis Example 676, (E)-N-Cyclopropyl-3-(3-(2,3-dihydro-1H-pyrido[2,3-b][1,4]oxazin-1-yl)-3-oxoprop-1-en-1-yl)-7-hydroxy-4-isobutyl-2-methyl-5-oxo-4,5-dihydropyrazolo[1,5-a]pyrimidine-6-carboxamide] | 0.91 |
| Cc1nn2c(O)c(C(=O)NC3CC3)c(=O)n(CC(C)C)c2c1/C=C/C(=O)N1CCC[C@H]1C(C)(C)O [Synthesis Example 677, (S,E)-N-Cyclopropyl-7-hydroxy-3-(3-(2-(2-hydroxypropan-2-yl)pyrrolidin-1-yl)-3-oxoprop-1-en-1-yl)-4-isobutyl-2-methyl-5-oxo-4,5-dihydropyrazolo[1,5-a]pyrimidine-6-carboxamide] | 0.95 |
| Cc1nn2c(O)c(C(=O)NC3CC3)c(=O)n(CC(C)C)c2c1/C=C/C(=O)N1CCCC12CCN(C(C)C)CC2 [Synthesis Example 678, (E)-N-Cyclopropyl-7-hydroxy-4-isobutyl-3-(3-(8-isopropyl-1,8-diazaspiro[4.5]decan-1-yl)-3-oxoprop-1-en-1-yl)-2-methyl-5-oxo-4,5-dihydropyrazolo[1,5-a]pyrimidine-6-carboxamide] | 1.17 |
| Cc1nn2c(O)c(C(=O)NC3CC3)c(=O)n(CC(C)C)c2c1/C=C/C(=O)N1CCO[C@H](C)C1 [Synthesis Example 679, (R,E)-N-Cyclopropyl-7-hydroxy-4-isobutyl-2-methyl-3-(3-(2-methylmorpholino)-3-oxoprop-1-en-1-yl)-5-oxo-4,5-dihydropyrazolo[1,5-a]pyrimidine-6-carboxamide] | 0.94 |
| Cc1nn2c(O)c(C(=O)NC3CC3)c(=O)n(CC(C)C)c2c1/C=C/C(=O)N1CCO[C@@H](C)C1 [Synthesis Example 680, (S,E)-N-Cyclopropyl-7-hydroxy-4-isobutyl-2-methyl-3-(3-(2-methylmorpholino)-3-oxoprop-1-en-1-yl)-5-oxo-4,5-dihydropyrazolo[1,5-a]pyrimidine-6-carboxamide] | 0.81 |
| Cc1nn2c(O)c(C(=O)NC3CC3)c(=O)n(CC(C)C)c2c1/C=C/C(=O)N(C)CC#N [Synthesis Example 681, (E)-3-(3-((Cyanomethyl)(methyl)amino)-3-oxoprop-1-en-1-yl)-N-cyclopropyl-7-hydroxy-4-isobutyl-2-methyl-5-oxo-4,5-dihydropyrazolo[1,5-a]pyrimidine-6-carboxamide] | 0.64 |

same assay, conditions: sepiapterin absorbance, Table 41, read-out: concentration at 50% inhibition of human SPR (IC50)

| SMILES | IC50 [nM] |
| --- | --- |
| COC[C@@H]1COCCN1C(=O)/C=C/c1c(C)nn2c(O)c(C(=O)NC3CC3)c(=O)n(CC(C)C)c12 [Synthesis Example 682, (R,E)-N-Cyclopropyl-7-hydroxy-4-isobutyl-3-(3-(3-(methoxymethyl)morpholino)-3-oxoprop-1-en-1-yl)-2-methyl-5-oxo-4,5-dihydropyrazolo[1,5-a]pyrimidine-6-carboxamide] | 0.85 |
| COC[C@H]1COCCN1C(=O)/C=C/c1c(C)nn2c(O)c(C(=O)NC3CC3)c(=O)n(CC(C)C)c12 [Synthesis Example 683, (S,E)-N-Cyclopropyl-7-hydroxy-4-isobutyl-3-(3-(3-(methoxymethyl)morpholino)-3-oxoprop-1-en-1-yl)-2-methyl-5-oxo-4,5-dihydropyrazolo[1,5-a]pyrimidine-6-carboxamide] | 0.82 |
| Cc1nn2c(O)c(C(=O)NC3CC3)c(=O)n(CC(C)C)c2c1/C=C/C(=O)N1CCC(C#N)CC1 [Synthesis Example 684, (E)-3-(3-(4-Cyanopiperidin-1-yl)-3-oxoprop-1-en-1-yl)-N-cyclopropyl-7-hydroxy-4-isobutyl-2-methyl-5-oxo-4,5-dihydropyrazolo[1,5-a]pyrimidine-6-carboxamide] | 0.89 |
| Cc1nn2c(O)c(C(=O)NC3CC3)c(=O)n(CC(C)C)c2c1/C=C/C(=O)N1CCN(CC(F)(F)F)CC1 [Synthesis Example 685, (E)-N-Cyclopropyl-7-hydroxy-4-isobutyl-2-methyl-5-oxo-3-(3-oxo-3-(4-(2,2,2-trifluoroethyl)piperazin-1-yl)prop-1-en-1-yl)-4,5-dihydropyrazolo[1,5-a]pyrimidine-6-carboxamide] | 1.23 |
| Cc1nn2c(O)c(C(=O)NC3CC3)c(=O)n(CC(C)C)c2c1/C=C/C(=O)N(C)CC(C)(C)O [Synthesis Example 686, (E)-N-Cyclopropyl-7-hydroxy-3-(3-((2-hydroxy-2-methylpropyl)(methyl)amino)-3-oxoprop-1-en-1-yl)-4-isobutyl-2-methyl-5-oxo-4,5-dihydropyrazolo[1,5-a]pyrimidine-6-carboxamide] | 1 |
| Cc1nn2c(O)c(C(=O)NC3CC3)c(=O)n(CC(C)C)c2c1/C=C/C(=O)N(C)CCC#N [Synthesis Example 687, (E)-3-(3-((2-Cyanoethyl)(methyl)amino)-3-oxoprop-1-en-1-yl)-N-cyclopropyl-7-hydroxy-4-isobutyl-2-methyl-5-oxo-4,5-dihydropyrazolo[1,5-a]pyrimidine-6-carboxamide] | 0.77 |
| Cc1nn2c(O)c(C(=O)NC3CC3)c(=O)n(CC(C)C)c2c1/C=C/C(=O)N1CC[C@H](C#N)C1 [Synthesis Example 688, (S,E)-3-(3-(3-Cyanopyrrolidin-1-yl)-3-oxoprop-1-en-1-yl)-N-cyclopropyl-7-hydroxy-4-isobutyl-2-methyl-5-oxo-4,5-dihydropyrazolo[1,5-a]pyrimidine-6-carboxamide] | 0.91 |
| Cc1nn2c(O)c(C(=O)NC3CC3)c(=O)n(CC(C)C)c2c1/C=C/C(=O)N1CC[C@@H](C#N)C1 [Synthesis Example 689, (R,E)-3-(3-(3-Cyanopyrrolidin-1-yl)-3-oxoprop-1-en-1-yl)-N-cyclopropyl-7-hydroxy-4-isobutyl-2-methyl-5-oxo-4,5-dihydropyrazolo[1,5-a]pyrimidine-6-carboxamide] | 0.95 |
| Cc1nn2c(O)c(C(=O)NC3CC3)c(=O)n(CC(C)(C)C)c2c1/C=C/C(=O)N(C)CC#N [Synthesis Example 690, (E)-3-(3-((Cyanomethyl)(methyl)amino)-3-oxoprop-1-en-1-yl)-N-cyclopropyl-7-hydroxy-2-methyl-4-neopentyl-5-oxo-4,5-dihydropyrazolo[1,5-a]pyrimidine-6-carboxamide] | 1.46 |
| CC[C@H]1COCCN1C(=O)/C=C/c1c(C)nn2c(O)c(C(=O)NC3CC3)c(=O)n(CC(C)(C)C)c12 [Synthesis Example 691, (S,E)-N-Cyclopropyl-3-(3-(3-ethylmorpholino)-3-oxoprop-1-en-1-yl)-7-hydroxy-2-methyl-4-neopentyl-5-oxo-4,5-dihydropyrazolo[1,5-a]pyrimidine-6-carboxamide] | 0.82 |
| Cc1nn2c(O)c(C(=O)NC3CC3)c(=O)n(CC(C)(C)C)c2c1/C=C/C(=O)N1CCN(C2CC(F)(F)C2)CC1 [Synthesis Example 692, (E)-N-Cyclopropyl-3-(3-(4-(3,3-difluorocyclobutyl)piperazin-1-yl)-3-oxoprop-1-en-1-yl)-7-hydroxy-2-methyl-4-neopentyl-5-oxo-4,5-dihydropyrazolo[1,5-a]pyrimidine-6-carboxamide] | 0.8 |
| COC[C@@H]1COCCN1C(=O)/C=C/c1c(C)nn2c(O)c(C(=O)NC3CC3)c(=O)n(CC(C)(C)C)c12 [Synthesis Example 693, (R,E)-N-Cyclopropyl-7-hydroxy-3-(3-(3-(methoxymethyl)morpholino)-3-oxoprop-1-en-1-yl)-2-methyl-4-neopentyl-5-oxo-4,5-dihydropyrazolo[1,5-a]pyrimidine-6-carboxamide] | 0.71 |
